# Where no end group is shown, it is not given here.
# Tests used:
# [1] = test system: ASH::ChR2 animals; test: Cross-modal sensitization assay (reversal response to optogenetic ASH activation); assay type: in vivo, C. elegans
# From the text: Channelrhodopsin experiments: 1-2 day old well-fed adult animals were used for all experiments. For LED stimulation: for experiments with flp-20 mutant animals, a custom setup was used as described in ([Ezcurra et al., 2011]); for experiments on frpr-3 mutant animals and RNAi transgenic lines, a custom setup was used as in ([Ardiel et al., 2016], [Ardiel et al., 2017]) using 480 nm Luxeon star LEDs with 450 uw/mm^2 power. In contrast to locomotion arousal experiments described above, these experiments used an automated tapper, which produces equivalent speed responses (Figure S1C). […] ATR (R2500 Sigma-Aldrich) was provided to animals by feeding as described in ([Rabinowitch et al., 2016b]). > 20 animals were placed onto the seeded plate and at least 4 plates were assayed per condition and genotype on multiple days for all cross-modal sensitization behavioral experiments. Video recording was started 5 min after the plate was placed on the stage. For animals exposed to a pre-arousing tap, 1 tap was used, followed by a 20 s interval and then a 2 s blue light stimulation. […]
# To test if 2-nonanone exposure could sensitize ASH-dependent reversals, 200 μL undiluted nonanone was spread with a pipette around the rim inside the lid of Petri dish. […] For all experiments, reversal length was analyzed using MATLAB ([Ardiel et al., 2017], [Ezcurra et al., 2011], [Ramot et al., 2008]).
# [2] = test system: ASH neuron; test: Nonanone sensitization assay, ASH calcium imaging in microfluidics chip; assay type: in vivo, C. elegans; settings: 5 s nonanone pulse (100%) then 0.5 M glycerol; GCaMP3; n = 9-10
# Description: In microfluidics chip: Calcium imaging on 1-2 day old adult animals was performed in custom-designed microfluidic devices as described (using mechanical stimulus module from [Cho et al., 2018], [Cho et al., 2017]). These experiments were performed on a Leica DMIRB inverted microscope using a 40x air objective (N.A. 0.75). Video sequences were captured using a Hamamatsu EM-CCD camera with 100 ms exposure time. Simultaneous dual color imaging was performed using a DV2 beamsplitter (Photometrics) containing a GFP(520 nm)/RFP(605 nm) filter set. Excitation light for fluorescent imaging was delivered through a projector system ([Stirman et al., 2011]). […] Videos were recorded for 40-90 s following stimulus delivery. For analysis of calcium transients, fluorescence intensities for each frame were extracted using a custom MATLAB script ([Cho et al., 2018], [Cho et al., 2017]). […] GCaMP3 and RFP intensities were measured as the mean pixel intensity of the 100 brightest pixels in a circular region of interest (ROI) with a 10 pixel radius. […] All quantification is provided as the ratio of GCaMP3 to tagRFP fluorescence intensity. […]
# [3] = test system: C. elegans wild-type animals; test: Locomotion assay after odorant stimuli; assay type: in vivo; settings: benzaldehyde 1% in ethanol, 2-nonanone undiluted, dropped in front of the nose
# [4] = target: T1, FRPR-3 (Caenorhabditis elegans, UniProt Q66GU0); test: In vitro GPCR activation assay (aequorin calcium bioluminescence, CHO/mtAEQ/Gα16 cells); assay type: cell-based, C. elegans; settings: mammalian cells expressing aequorin and promiscuous Gα16
# T1 sequence (Q66GU0 1-360): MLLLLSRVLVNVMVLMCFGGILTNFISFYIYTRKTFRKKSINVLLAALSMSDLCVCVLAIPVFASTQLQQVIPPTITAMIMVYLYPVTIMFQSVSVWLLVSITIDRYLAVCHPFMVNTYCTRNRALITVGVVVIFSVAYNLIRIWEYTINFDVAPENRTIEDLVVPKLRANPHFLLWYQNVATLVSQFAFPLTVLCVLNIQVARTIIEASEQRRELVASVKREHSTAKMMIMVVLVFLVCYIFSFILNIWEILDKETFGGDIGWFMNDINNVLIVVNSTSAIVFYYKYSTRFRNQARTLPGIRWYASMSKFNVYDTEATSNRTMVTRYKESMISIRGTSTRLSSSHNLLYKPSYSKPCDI
# Description: Cell-based activation assays were performed as described ([Beets et al., 2012]). FRPR-3/C26F1.6 cDNA was cloned into the pcDNA3.1(+) TOPO expression vector (Thermo Fisher Scientific). Receptor activation was studied in Chinese hamster ovary cells (CHO) stably expressing apo-aequorin (mtAEQ) targeted to the mitochondria as well as the human Gα16 subunit. The CHO-K1 cell line (PerkinElmer, ES-000-A2) was used for receptor activation assays. CHO/mtAEQ/Gα16 cells were transiently transfected with the FRPR-3 cDNA construct or the empty pcDNA3.1(+) vector using the Lipofectamine transfection reagent (Thermo Fisher Scientific). Cells expressing the receptor were shifted to 28°C 1 day later, and collected 2 days post-transfection in BSA medium (DMEM/HAM’s F12 with 15 mM HEPES, without phenol red, 0.1% BSA) loaded with 5 μM coelenterazine h (Thermo Fisher Scientific) for 4 h to reconstitute the holo-enzyme aequorin. Cells (25,000 cells/well) were exposed to synthetic peptides in BSA medium, and aequorin bioluminescence was recorded for 30 s on a MicroBeta LumiJet luminometer (PerkinElmer, Waltham Massachusetts) in quadruplicate. For dose-response evaluations, after 30 s of ligand-stimulated calcium measurements, Triton X-100 (0.1%) was added to the well to obtain a measure of the maximum cell Ca^2+ response. BSA medium without peptides was used as a negative control and 1 μM ATP was used to check the functional response of the cells. Cells transfected with the empty vector were used as a negative control (not shown). EC50 values were calculated from dose-response curves, constructed using a nonlinear regression analysis, with sigmoidal dose-response equation (Prism 6.0).
molecule,measurement,setting,value
O=Cc1ccccc1 [benzaldehyde],Effect of odorant presence on tap-evoked enhancement of ASH responses,"[1]; 1% benzaldehyde in ethanol on lid, tap, 20 s wait, blue light 2 s, n>15",did not prevent enhancement of ASH responses by tap
"CCCCCCCC(C)=O [nonanone, 2-nonanone]",Enhancement of ASH calcium responses to glycerol by prior odorant exposure,[2],did not significantly enhance ASH responses to glycerol
same,Enhancement of behavioral (reversal) response to optogenetic ASH activation by prior odorant exposure,"[1]; 200 μL undiluted nonanone on lid, blue light 40 s later, n > 7",nor did it enhance behavioral responses to optogenetic activation of ASH
same,Increase in locomotion speed after stimulus,[3],can evoke locomotor arousal
AMMRF-NH2 [AMMRFa],EC50 values for activation of FRPR-3 (in words),[4],low nanomolar range
AVFRM-NH2 [AVFRMa],EC50 values for activation of FRPR-3 (in words),[4],low nanomolar range
SVFRL-NH2 [SVFRLa],EC50 values for activation of FRPR-3 (in words),[4],low nanomolar range
